According to publication PMC12446476 (Nature Communications, 2025):
Converted amounts (≈) assume the structure as drawn. Read-outs that look alike come from different tables or passages of the source.

Test system: N. gonorrhoeae
Assay: MIC determination, Etest
Assay type: cell-based, Neisseria gonorrhoeae
Details: for MIC: Neisseria gonorrhoeae
From the text: The 2024 WHO N. gonorrhoeae reference strains were used for quality control. Only whole MIC doubling dilutions are reported. Clinical breakpoints or the epidemiological cutoff (ECOFF, to indicate azithromycin resistance) from EUCAST (v14.0, https://www.eucast.org/clinical_breakpoints) were used to classify isolates as antimicrobial susceptible or resistant. […] Two times the standard inoculum defined by CLSI was used to establish consistent growth in untreated control samples for some strains. In vitro time-kill assays were performed according to CLSI guidelines[65] using Columbia Broth (BD Difco) supplemented with 1% IsoVitaleX Enrichment (BD). Viable bacterial counts were generated by plating 10-fold serially diluted samples on GC agar plates containing 1% IsoVitaleX Enrichment (BD).

Compound: CC[C@H]1OC(=O)[C@H](C)[C@@H](O[C@H]2C[C@@](C)(OC)[C@@H](O)[C@H](C)O2)[C@H](C)[C@@H](O[C@@H]2O[C@H](C)C[C@H](N(C)C)[C@H]2O)[C@](C)(O)C[C@@H](C)CN(C)[C@H](C)[C@@H](O)[C@]1(C)O [Azithromycin]
- percent of isolates resistant (100 contemporary clinical N. gonorrhoeae isolates, EUCAST): 2%
- MIC (WHO F, Etest, read-out: MIC): 0.25 µg/mL (≈ 0.334 µM)
- MIC (WHO H, Etest, read-out: MIC): 0.25 µg/mL (≈ 0.334 µM)
- MIC (WHO K, Etest, read-out: MIC): 0.5 µg/mL (≈ 0.668 µM)
- MIC (WHO L, Etest, read-out: MIC): 1 µg/mL (≈ 1.34 µM)
- MIC (WHO M, Etest, read-out: MIC): 0.5 µg/mL (≈ 0.668 µM)
- MIC (WHO O, Etest, read-out: MIC): 0.5 µg/mL (≈ 0.668 µM)
- MIC (WHO P, Etest, read-out: MIC): 4 µg/mL (≈ 5.34 µM)
- MIC (WHO Q, Etest, read-out: MIC): < 256 µg/mL
- MIC (WHO R, Etest, read-out: MIC): 0.5 µg/mL (≈ 0.668 µM)
- MIC (WHO S2, Etest, read-out: MIC): 2 µg/mL (≈ 2.67 µM)
- MIC (WHO U, Etest, read-out: MIC): 4 µg/mL (≈ 5.34 µM)
- MIC (WHO V, Etest, read-out: MIC): > 256 µg/mL
- MIC (WHO X, Etest, read-out: MIC): 0.5 µg/mL (≈ 0.668 µM)
- MIC (WHO Y, Etest, read-out: MIC): 1 µg/mL (≈ 1.34 µM)
- MIC (WHO Z, Etest, read-out: MIC): 1 µg/mL (≈ 1.34 µM)
- MIC (comparator antibiotics, clinical N. gonorrhoeae isolate 1, Sweden 2023, read-out: Minimum inhibitory concentration): 0.25 µg/mL (≈ 0.334 µM)
- MIC (comparator antibiotics, clinical N. gonorrhoeae isolate 2, Sweden 2023, read-out: Minimum inhibitory concentration): 0.125 µg/mL (≈ 0.167 µM)
- MIC (comparator antibiotics, clinical N. gonorrhoeae isolate 3, Sweden 2023, read-out: Minimum inhibitory concentration): 0.25 µg/mL (≈ 0.334 µM)
- MIC (comparator antibiotics, clinical N. gonorrhoeae isolate 4, Sweden 2023, read-out: Minimum inhibitory concentration): 0.5 µg/mL (≈ 0.668 µM)
- MIC (comparator antibiotics, clinical N. gonorrhoeae isolate 5, Sweden 2023, read-out: Minimum inhibitory concentration): 0.064 µg/mL (≈ 0.0854 µM)
- MIC (comparator antibiotics, clinical N. gonorrhoeae isolate 6, Sweden 2023, read-out: Minimum inhibitory concentration): 0.064 µg/mL (≈ 0.0854 µM)
- MIC (comparator antibiotics, clinical N. gonorrhoeae isolate 7, Sweden 2023, read-out: Minimum inhibitory concentration): 0.125 µg/mL (≈ 0.167 µM)
- MIC (comparator antibiotics, clinical N. gonorrhoeae isolate 8, Sweden 2023, read-out: Minimum inhibitory concentration): 0.064 µg/mL (≈ 0.0854 µM)
- MIC (comparator antibiotics, clinical N. gonorrhoeae isolate 9, Sweden 2023, read-out: Minimum inhibitory concentration): 0.25 µg/mL (≈ 0.334 µM)
- MIC (comparator antibiotics, clinical N. gonorrhoeae isolate 10, Sweden 2023, read-out: Minimum inhibitory concentration): 0.125 µg/mL (≈ 0.167 µM)
- MIC (comparator antibiotics, clinical N. gonorrhoeae isolate 11, Sweden 2023, read-out: Minimum inhibitory concentration): 0.25 µg/mL (≈ 0.334 µM)
- MIC (comparator antibiotics, clinical N. gonorrhoeae isolate 12, Sweden 2023, read-out: Minimum inhibitory concentration): 0.125 µg/mL (≈ 0.167 µM)
- MIC (comparator antibiotics, clinical N. gonorrhoeae isolate 13, Sweden 2023, read-out: Minimum inhibitory concentration): 0.064 µg/mL (≈ 0.0854 µM)
- MIC (comparator antibiotics, clinical N. gonorrhoeae isolate 14, Sweden 2023, read-out: Minimum inhibitory concentration): 0.064 µg/mL (≈ 0.0854 µM)
- MIC (comparator antibiotics, clinical N. gonorrhoeae isolate 15, Sweden 2023, read-out: Minimum inhibitory concentration): 0.25 µg/mL (≈ 0.334 µM)
- MIC (comparator antibiotics, clinical N. gonorrhoeae isolate 16, Sweden 2023, read-out: Minimum inhibitory concentration): 0.25 µg/mL (≈ 0.334 µM)
- MIC (comparator antibiotics, clinical N. gonorrhoeae isolate 17, Sweden 2023, read-out: Minimum inhibitory concentration): 0.25 µg/mL (≈ 0.334 µM)
- MIC (comparator antibiotics, clinical N. gonorrhoeae isolate 18, Sweden 2023, read-out: Minimum inhibitory concentration): 0.032 µg/mL (≈ 0.0427 µM)
- MIC (comparator antibiotics, clinical N. gonorrhoeae isolate 19, Sweden 2023, read-out: Minimum inhibitory concentration): 0.25 µg/mL (≈ 0.334 µM)
- MIC (comparator antibiotics, clinical N. gonorrhoeae isolate 20, Sweden 2023, read-out: Minimum inhibitory concentration): 0.5 µg/mL (≈ 0.668 µM)
- MIC (comparator antibiotics, clinical N. gonorrhoeae isolate 21, Sweden 2023, read-out: Minimum inhibitory concentration): 0.5 µg/mL (≈ 0.668 µM)
- MIC (comparator antibiotics, clinical N. gonorrhoeae isolate 22, Sweden 2023, read-out: Minimum inhibitory concentration): 0.125 µg/mL (≈ 0.167 µM)
- MIC (comparator antibiotics, clinical N. gonorrhoeae isolate 23, Sweden 2023, read-out: Minimum inhibitory concentration): 0.125 µg/mL (≈ 0.167 µM)
- MIC (comparator antibiotics, clinical N. gonorrhoeae isolate 24, Sweden 2023, read-out: Minimum inhibitory concentration): 0.25 µg/mL (≈ 0.334 µM)
- MIC (comparator antibiotics, clinical N. gonorrhoeae isolate 25, Sweden 2023, read-out: Minimum inhibitory concentration): 0.064 µg/mL (≈ 0.0854 µM)
- MIC (comparator antibiotics, clinical N. gonorrhoeae isolate 26, Sweden 2023, read-out: Minimum inhibitory concentration): 0.25 µg/mL (≈ 0.334 µM)
- MIC (comparator antibiotics, clinical N. gonorrhoeae isolate 27, Sweden 2023, read-out: Minimum inhibitory concentration): 0.125 µg/mL (≈ 0.167 µM)
- MIC (comparator antibiotics, clinical N. gonorrhoeae isolate 28, Sweden 2023, read-out: Minimum inhibitory concentration): 0.016 µg/mL (≈ 0.0214 µM)
- MIC (comparator antibiotics, clinical N. gonorrhoeae isolate 29, Sweden 2023, read-out: Minimum inhibitory concentration): 0.25 µg/mL (≈ 0.334 µM)
- MIC (comparator antibiotics, clinical N. gonorrhoeae isolate 30, Sweden 2023, read-out: Minimum inhibitory concentration): 0.125 µg/mL (≈ 0.167 µM)
- MIC (comparator antibiotics, clinical N. gonorrhoeae isolate 31, Sweden 2023, read-out: Minimum inhibitory concentration): 0.064 µg/mL (≈ 0.0854 µM)
- MIC (comparator antibiotics, clinical N. gonorrhoeae isolate 32, Sweden 2023, read-out: Minimum inhibitory concentration): 0.064 µg/mL (≈ 0.0854 µM)
- MIC (comparator antibiotics, clinical N. gonorrhoeae isolate 33, Sweden 2023, read-out: Minimum inhibitory concentration): 0.125 µg/mL (≈ 0.167 µM)
- MIC (comparator antibiotics, clinical N. gonorrhoeae isolate 34, Sweden 2023, read-out: Minimum inhibitory concentration): 0.125 µg/mL (≈ 0.167 µM)
- MIC (comparator antibiotics, clinical N. gonorrhoeae isolate 35, Sweden 2023, read-out: Minimum inhibitory concentration): 0.25 µg/mL (≈ 0.334 µM)
- MIC (comparator antibiotics, clinical N. gonorrhoeae isolate 36, Sweden 2023, read-out: Minimum inhibitory concentration): 0.5 µg/mL (≈ 0.668 µM)
- MIC (comparator antibiotics, clinical N. gonorrhoeae isolate 37, Sweden 2023, read-out: Minimum inhibitory concentration): 0.125 µg/mL (≈ 0.167 µM)
- MIC (comparator antibiotics, clinical N. gonorrhoeae isolate 38, Sweden 2023, read-out: Minimum inhibitory concentration): 0.032 µg/mL (≈ 0.0427 µM)
- MIC (comparator antibiotics, clinical N. gonorrhoeae isolate 39, Sweden 2023, read-out: Minimum inhibitory concentration): 0.125 µg/mL (≈ 0.167 µM)
- MIC (comparator antibiotics, clinical N. gonorrhoeae isolate 40, Sweden 2023, read-out: Minimum inhibitory concentration): 0.064 µg/mL (≈ 0.0854 µM)
- MIC (comparator antibiotics, clinical N. gonorrhoeae isolate 41, Sweden 2023, read-out: Minimum inhibitory concentration): 0.25 µg/mL (≈ 0.334 µM)
- MIC (comparator antibiotics, clinical N. gonorrhoeae isolate 42, Sweden 2023, read-out: Minimum inhibitory concentration): 0.032 µg/mL (≈ 0.0427 µM)
- MIC (comparator antibiotics, clinical N. gonorrhoeae isolate 43, Sweden 2023, read-out: Minimum inhibitory concentration): 0.5 µg/mL (≈ 0.668 µM)
- MIC (comparator antibiotics, clinical N. gonorrhoeae isolate 44, Sweden 2023, read-out: Minimum inhibitory concentration): 0.5 µg/mL (≈ 0.668 µM)
- MIC (comparator antibiotics, clinical N. gonorrhoeae isolate 45, Sweden 2023, read-out: Minimum inhibitory concentration): 0.064 µg/mL (≈ 0.0854 µM)
- MIC (comparator antibiotics, clinical N. gonorrhoeae isolate 46, Sweden 2023, read-out: Minimum inhibitory concentration): 0.032 µg/mL (≈ 0.0427 µM)
- MIC (comparator antibiotics, clinical N. gonorrhoeae isolate 47, Sweden 2023, read-out: Minimum inhibitory concentration): 0.125 µg/mL (≈ 0.167 µM)
- MIC (comparator antibiotics, clinical N. gonorrhoeae isolate 48, Sweden 2023, read-out: Minimum inhibitory concentration): 0.125 µg/mL (≈ 0.167 µM)
- MIC (comparator antibiotics, clinical N. gonorrhoeae isolate 49, Sweden 2023, read-out: Minimum inhibitory concentration): 0.5 µg/mL (≈ 0.668 µM)
